The subject of assay [1] is NF-κB pathway (SEAP) in THP1-Dual cells. In words: THP-1 Dual cell SEAP assay (L18-MDP stimulated). Format: cell-based. The conditions noted are these: Homo sapiens, THP1-Dual, read-out: NF-κB THP1 IC50 bin. Summed up: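 THP1-Dual cells (~25,000/well) were preincubated 30 min with serially diluted compounds, then stimulated with 10 ng/mL L18-MDP (final) for 20-24 h at 37 °C. Supernatant SEAP was read with QUANTI-Blue at OD 620-655 nm after 2 h. IC50 came from non-linear fits of % inhibition versus DMSO/L18-MDP controls after media-blank subtraction.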

Assay [2] has as its target T1, GST-RIPK2 fusion protein (human RIPK2, amino acids 1-310) (Homo sapiens, UniProt O43353).
T1 construct: made in house; host or cells: baculovirus infected Sf9 cells
Briefly: RIPK2 binding competition assay (TR-FRET, Tracer 199 displacement). Summed up:
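GST-RIPK2 (human aa 1-310, Sf9-expressed; final 1 nM) with Tracer 199 (final 10 nM) and Tb-anti-GST (final 0.5 nM) in Tris pH 7.5 buffer, 45 min at 22 °C. TR-FRET 665/620 nm ratio after 337 nm excitation; normalized to no-inhibitor (0%) and no-protein (−100%), giving IC50.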
In general terms: TR-FRET usually uses a lanthanide donor and a delayed reading to cut background.

The target of assay [3] is T2, binding of His-XIAP(BIR2)-avi fusion protein to GST-RIPK2 fusion protein (RIPK2/XIAP) (Homo sapiens, UniProt O43353).
T2 construct: made in house; host or cells: baculovirus infected Sf9 cells
Briefly: RIPK2-XIAP binding competition PPI assay (TR-FRET). The conditions noted are these: for Emax: read-out: PPI Amax bin. Put shortly: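 Compounds (in DMSO, 100-fold stock) incubated 120 min at 23 °C with 1 nM GST-RIPK2 (aa 1-310) and 25 nM His-XIAP(BIR2 aa 152-231)-avi, plus anti-His-XL665 and anti-GST-Tb, in pH 7.5 Tris buffer. Read-out: 665/520 nm emission ratio. Normalized to no-inhibitor (0%) and 50 nM GSK583 (−100%); Amax binned A–D.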

Where [4] appears, read: 10 nM Tracer 199, 1 nM GST-RIPK2, read-out: RIPK2 IC50.
[5] abbreviates: RIPK2/XIAP binding competition PPI assay, Amax.
The mark [6] stands for this setting: RIPK2/XIAP binding competition PPI assay, read-out: PPI IC50 bin.

Like-named read-outs stand apart in the source and are kept apart here. A value given as a limit tells only on which side of the number the result lay.

T2 sequence (O43353 1-310 limits assumed): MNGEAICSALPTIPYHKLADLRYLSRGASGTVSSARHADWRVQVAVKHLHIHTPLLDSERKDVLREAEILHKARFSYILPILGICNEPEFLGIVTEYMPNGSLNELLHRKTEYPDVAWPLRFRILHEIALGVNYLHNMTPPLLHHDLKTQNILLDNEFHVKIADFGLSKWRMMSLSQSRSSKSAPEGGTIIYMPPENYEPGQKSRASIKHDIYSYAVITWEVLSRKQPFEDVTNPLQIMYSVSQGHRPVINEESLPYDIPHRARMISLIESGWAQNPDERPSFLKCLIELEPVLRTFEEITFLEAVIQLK
T1 sequence (O43353 1-310): as the sequence (O43353 1-310 limits assumed) above

`COCCOc1cc2ncc(-c3cc(F)c(N)nc3F)n2cc1S(=O)(=O)C(C)(C)C` [Example 16, 5-(6-(tert-butylsulfonyl)-7-(2-methoxyethoxy)imidazo[1,2-a]pyridin-3-yl)-3,6-difluoropyridin-2-amine]: the IC50 (in general, the concentration at which inhibition is half-maximal) is 250 to 1000 nM in assay [1], 2.5 to 20 nM in assay [2] (setting [4]) and 2.5 to 20 nM in assay [3] (setting [6]). Also, the Emax in assay [3] (setting [5]) was more than 80%.
On to `CC(C)(C)S(=O)(=O)c1cn2c(-c3cc(F)c(N)nc3F)cnc2cc1OCCN1CCOC1=O` [Example 29, 3-(2-((3-(6-amino-2,5-difluoropyridin-3-yl)-6-(tert-butylsulfonyl)imidazo[1,2-a]pyridin-7-yl)oxy)ethyl)oxazolidin-2-one], for which the values for the 50% inhibitory concentration (IC50) in assay [1], in assay [2] (setting [4]) and in assay [3] (setting [6]) were 250 to 1000 nM, 2.5 to 20 nM and 2.5 to 20 nM, respectively. Further, the Emax in assay [3] (setting [5]) was more than 80%.
Regarding `C[C@@H](CO)COc1cn2ncc(-c3cc(Cl)c(N)nc3F)c2cc1S(=O)(=O)C(C)(C)C` [Example 199, (S)-3-((3-(6-amino-5-chloro-2-fluoropyridin-3-yl)-5-(tert-butylsulfonyl)pyrazolo [1,5-a]pyridin-6-yl)oxy)-2-methylpropan-1-ol], the IC50 in assay [1] was 50 to 250 nM; in assay [2] (setting [4]), less than 1 nM; in assay [3] (setting [6]) it was less than 1 nM. In assay [3] (setting [5]), the Emax is more than 80%.
Consider `COc1cc2ncc(-c3cnc4c(c3)OCCN4C)n2cc1S(=O)(=O)C(C)(C)C` [Example 123, 7-(6-(tert-butylsulfonyl)-7-methoxyimidazo[1,2-a]pyridin-3-yl)-4-methyl-3,4-dihydro-2H-pyrido[3,2-b][1,4]oxazine], for which the values for the IC50 in assay [1], in assay [2] (setting [4]) and in assay [3] (setting [6]) were more than 1000 nM, more than 20 nM and more than 20 nM, respectively. The Emax in assay [3] (setting [5]) is 30 to 55%.
As for `COc1cc2ncc(-c3ccc4nc(N)[nH]c4c3)n2cc1S(=O)(=O)C(C)(C)C` [Example 98, 6-(6-(tert-butylsulfonyl)-7-methoxyimidazo[1,2-a]pyridin-3-yl)-1H-benzo[d]imidazol-2-amine], the IC50 in assay [1] was more than 1000 nM; in assay [2] (setting [4]), 2.5 to 20 nM; in assay [3] (setting [6]) it was more than 20 nM. In addition, in assay [3] (setting [5]), the Emax was less than 30%.
Taken in the same sequence, the figures for `CCCS(=O)(=O)Nc1cc(-c2cnc3cc(OC)c(S(=O)(=O)C4(C)CC4)cn23)cc(OC)c1OC` [Example 67, N-(2,3-dimethoxy-5-(7-methoxy-6-((1-methylcyclopropyl)sulfonyl)imidazo[1,2-a]pyridin-3-yl)phenyl)propane-1-sulfonamide] were less than 50 nM, less than 1 nM, less than 1 nM and more than 80%.
Taken in the same sequence, the figures for `COc1cc2ncc(-c3cccc(NS(=O)(=O)C4(CO)CC4)c3)n2cc1S(=O)(=O)C(C)(C)C` [Example 179, N-(3-(6-(tert-butylsulfonyl)-7-methoxyimidazo[1,2-a]pyridin-3-yl)phenyl)-1-(hydroxymethyl)cyclopropane-1-sulfonamide] were more than 1000 nM, 2.5 to 20 nM, 2.5 to 20 nM and 55 to 80%.
The like results for `COc1c(F)cc(-c2cnc3cc(OC[C@H](C)CO)c(S(=O)(=O)C(C)(C)C)cn23)cc1NS(C)(=O)=O` [Example 183, (R)-N-(5-(6-(tert-butylsulfonyl)-7-(3-hydroxy-2-methylpropoxy)imidazo[1,2-a]pyridin-3-yl)-3-fluoro-2-methoxyphenyl)methanesulfonamide] were, in that order, less than 50 nM, less than 1 nM, less than 1 nM and 55 to 80%.
Turning to `CC(C)(C)S(=O)(=O)c1cn2c(-c3cnc4[nH]c(Cl)cc4c3)cnc2cc1OCCO` [Example 233, 2-((6-(tert-butylsulfonyl)-3-(2-chloro-1H-pyrrolo[2,3-b]pyridin-5-yl)imidazo[1,2-a]pyridin-7-yl)oxy)ethan-1-ol], the figures for the IC50 in assay [1], in assay [2] (setting [4]) and in assay [3] (setting [6]) were more than 1000 nM, 2.5 to 20 nM and more than 20 nM, respectively. In assay [3] (setting [5]), the Emax is less than 30%.
Taken in the same sequence, the figures for `COc1cc2ncc(-c3cnc4c(c3)CC(=O)N4)n2cc1S(=O)(=O)C(C)(C)C` [Example 83, 5-(6-(tert-butylsulfonyl)-7-methoxyimidazo[1,2-a]pyridin-3-yl)-1,3-dihydro-2H-pyrrolo[2,3-b]pyridin-2-one] were more than 1000 nM, more than 20 nM, more than 20 nM and less than 30%.
In the case of `COc1cc2ncc(-c3cc(F)c(OC)c(NC(=O)Cc4cnn(C)c4)c3)n2cc1S(=O)(=O)C(C)(C)C` [Example 297, N-(5-(6-(tert-butylsulfonyl)-7-methoxyimidazo[1,2-a]pyridin-3-yl)-3-fluoro-2-methoxyphenyl)-2-(1-methyl-1H-pyrazol-4-yl)acetamide], the IC50 was 50 to 250 nM in assay [1], 1 to 2.5 nM in assay [2] (setting [4]) and 1 to 2.5 nM in assay [3] (setting [6]). Moreover, the Emax in assay [3] (setting [5]) is more than 80%.
`C[C@H](CO)COc1cc2ncc(-c3cc(Cl)c(N)nc3F)n2cc1S(=O)(=O)C(C)(C)C` [Example 198, (R)-3-((3-(6-amino-5-chloro-2-fluoropyridin-3-yl)-6-(tert-butylsulfonyl)imidazo [1,2-a]pyridin-7-yl)oxy)-2-methylpropan-1-ol]: the results for the IC50 in assay [1], in assay [2] (setting [4]) and in assay [3] (setting [6]) were 50 to 250 nM, 1 to 2.5 nM and less than 1 nM, respectively. Besides, in assay [3] (setting [5]), the Emax is more than 80%.
Taken in the same sequence, the figures for `COc1cc2ncc(-c3cc(F)c(N)nc3F)n2cc1C1CCCN(C)C1=O` (centres unmarked) [Example 213, 3-(3-(6-amino-2,5-difluoropyridin-3-yl)-7-methoxyimidazo[1,2-a]pyridin-6-yl)-1-methylpiperidin-2-one] were more than 1000 nM, more than 20 nM, more than 20 nM and 55 to 80%.
`COc1cc2ncc(-c3cn(C)c4ncccc34)n2cc1S(=O)(=O)C(C)(C)C` [Example 99, 6-(tert-butylsulfonyl)-7-methoxy-3-(1-methyl-1H-pyrrolo[2,3-b]pyridin-3-yl)imidazo[1,2-a]pyridine]: the IC50 in assay [1] was more than 1000 nM; in assay [2] (setting [4]), 2.5 to 20 nM; in assay [3] (setting [6]), more than 20 nM. For the same compound, in assay [3] (setting [5]), the Emax is less than 30%.
As to `COc1cc2ncc(-c3cc(F)c(N)nc3F)n2cc1S(=O)(=O)C(C)(C)CO` [Example 60, 2-((3-(6-amino-2,5-difluoropyridin-3-yl)-7-methoxyimidazo[1,2-a]pyridin-6-yl)sulfonyl)-2-methylpropan-1-ol], the IC50 in assay [1] lay within 250 to 1000 nM; in assay [2] (setting [4]) it was 2.5 to 20 nM; in assay [3] (setting [6]), 2.5 to 20 nM. Further, the Emax in assay [3] (setting [5]) was more than 80%.
Consider `C[C@@H](CO)COc1cc2ncc(-c3cc(F)c(N)nc3F)n2cc1S(=O)(=O)C(C)(C)C` [Example 175, (S)-3-((3-(6-amino-2,5-difluoropyridin-3-yl)-6-(tert-butylsulfonyl)imidazo[1,2-a]pyridin-7-yl)oxy)-2-methylpropan-1-ol], for which the IC50 in assay [1] lay within 50 to 250 nM; in assay [2] (setting [4]), 1 to 2.5 nM; in assay [3] (setting [6]) it was 1 to 2.5 nM. The Emax in assay [3] (setting [5]) was more than 80%.
For `CC(C)(C)S(=O)(=O)c1cn2c(-c3cnc4[nH]nnc4c3)cnc2cc1OCCO` [Example 231, 2-((3-(3H-[1,2,3]triazolo[4,5-b]pyridin-6-yl)-6-(tert-butylsulfonyl)imidazo [1,2-a]pyridin-7-yl)oxy)ethan-1-ol], the IC50 was more than 1000 nM in assay [1], more than 20 nM in assay [2] (setting [4]) and more than 20 nM in assay [3] (setting [6]). Also, the Emax in assay [3] (setting [5]) is 30 to 55%.
`COc1cc2ncc(-c3ccc(N)nc3F)n2cc1S(=O)(=O)CCCO` [Example 61, 3-((3-(6-amino-2-fluoropyridin-3-yl)-7-methoxyimidazo[1,2-a]pyridin-6-yl)sulfonyl)propan-1-ol]: the results for the IC50 in assay [1], in assay [2] (setting [4]) and in assay [3] (setting [6]) were more than 1000 nM, more than 20 nM and more than 20 nM, respectively. The Emax in assay [3] (setting [5]) is more than 80%.
As to `COc1cc2ncc(-c3cc(F)c(N)nc3F)n2cc1S(=O)(=O)C(C)(C)CN1CCN(C)CC1` [Example 166, 3,6-difluoro-5-(7-methoxy-6-((2-methyl-1-(4-methylpiperazin-1-yl)propan-2-yl)sulfonyl)imidazo[1,2-a]pyridin-3-yl)pyridin-2-amine], the IC50 was more than 1000 nM in assay [1]; 2.5 to 20 nM in assay [2] (RIPK2 IC50 (nM), 10 nM Tracer 199, 1 nM GST-RIPK2); 2.5 to 20 nM in assay [3] (PPI IC50 bin, RIPK2/XIAP binding competition PPI assay). Besides, in assay [3], the Emax was more than 80%.
On to `CCCS(=O)(=O)Nc1cc(-c2cnc3cc(OC)c(S(=O)(=O)C(C)(C)C)cn23)cc(-n2cccn2)c1` [Example 81, N-(3-(6-(tert-butylsulfonyl)-7-methoxyimidazo[1,2-a]pyridin-3-yl)-5-(1H-pyrazol-1-yl)phenyl)propane-1-sulfonamide], for which the IC50 in assay [1] was 250 to 1000 nM; in assay [2] (setting [4]) it was 1 to 2.5 nM; in assay [3] (setting [6]) it was more than 20 nM. Moreover, the Emax in assay [3] (setting [5]) was less than 30%.

(Values after patent publication US20260137706A1, “METHODS OF TREATING INFLAMMATORY DISEASES” (INTERLINE THERAPEUTICS, INC., priority 2023, published 2026).)
